Laboratory results: the supplement of paper PMC10627819

How the values were obtained:
S. aureus DSM 20231 = assay: Bliss interaction score (quartile over a dose matrix) (fitness difference); higher = more antagonism (negative = synergy)
In short: (§1)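 The Bliss score takes observed fitness and subtracts the expected fitness, calculated as a product of single-drug fitness values. Those single-drug values were inferred from the combination data. Fitness is OD595 at entry into stationary phase divided by the plate's robust no-drug mean, capped at 1, and the score is summarised by quartiles across technical, biological and donor/recipient replicates.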

S. aureus Newman [1] = assay: as above
In short: as §1

S. pneumoniae D39V = assay: as above
In short: as §1

B. subtilis 168 [2] = assay: as above
In short: as §1

S. aureus Newman [3] = assay: fitness (endpoint OD595 vs no drug) (fraction); higher = more growth; conditions: one replicate
In short: (§2)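 Fitness was defined as the optical density at the transition into stationary phase relative to the robust mean of no-drug control wells. Values were capped at 1. Cultures were started at OD595 0.01 in 384-well plates (30 µl, or 55 µl for S. pneumoniae) in TSB, LB Lennox or CY at 37 °C. OD595 was recorded every 30 min over 14 h, with the first reading subtracted as background.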

B. subtilis 168 [4] = assay: as above
In short: as §2
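Throughout, for Bliss interaction score (quartile over a dose matrix): first quartile when negative (synergy) and third quartile when positive (antagonism).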

CO/N=C(\C(=O)N[C@@H]1C(=O)N2C(C(=O)O)=C(COC(N)=O)CS[C@H]12)c1ccco1 [Cefuroxime] + COc1cccc2c1C(=O)c1c(O)c3c(c(O)c1C2=O)C[C@@](O)(C(=O)CO)C[C@@H]3O[C@H]1C[C@H](N)[C@H](O)[C@H](C)O1 [Doxorubicin]
Conditions | Bliss interaction score
B. subtilis 168 [2] | -0.158
S. aureus DSM 20231 | 0.0859
S. aureus Newman [1] | -0.0601
S. pneumoniae D39V | -0.0401

fitness
Conditions | first compound 0.04875 µg/mL | first compound 0.0975 µg/mL | first compound 0.195 µg/mL
B. subtilis 168 [4], partner 0.625 µg/mL | 0.667 | 0.575 | 0.343
B. subtilis 168 [4], partner 1.25 µg/mL | 0.63 | 0.528 | 0.288
B. subtilis 168 [4], partner 2.5 µg/mL | 0.371 | 0.293 | 0.025
S. aureus Newman [3], partner 0.625 µg/mL | 0.891 | 0.873 | 0.784
S. aureus Newman [3], partner 1.25 µg/mL | 0.854 | 0.753 | 0.682
S. aureus Newman [3], partner 2.5 µg/mL | 0.735 | 0.617 | 0.659

fitness, B. subtilis 168 [4], one replicate
Conditions | first compound 0.39 µg/mL | first compound 0.78 µg/mL | first compound 1.562 µg/mL | first compound 3.125 µg/mL | first compound 6.25 µg/mL
partner 0.625 µg/mL | 0.264 | 0.272 | 0.365 | 0.208 | 0.142
partner 1.25 µg/mL | 0.25 | 0.17 | 0.0862 | 0.0711 | 0.0435
partner 2.5 µg/mL | 0.018 | 0.0243 | 0.0327 | 0.0359 | 0.0405

CO/N=C(\C(=O)N[C@@H]1C(=O)N2C(C(=O)O)=C(COC(N)=O)CS[C@H]12)c1ccco1 [Cefuroxime] + C[C@@H]1O[C@@H]1P(=O)(O)O [Fosfomycin]
Conditions | Bliss interaction score
B. subtilis 168 [2] | -0.0716
S. aureus DSM 20231 | 0.0278
S. aureus Newman [1] | 0.0983
S. pneumoniae D39V | 0.0411

fitness
Conditions | first compound 0.04875 µg/mL | first compound 0.0975 µg/mL | first compound 0.195 µg/mL
B. subtilis 168 [4], partner 1.562 µg/mL | 0.464 | 0.419 | 0.39
B. subtilis 168 [4], partner 3.124 µg/mL | 0.363 | 0.337 | 0.28
B. subtilis 168 [4], partner 6.248 µg/mL | 0.293 | 0.245 | 0.194
S. aureus Newman [3], partner 0.781 µg/mL | 0.803 | 0.7 | 0.632
S. aureus Newman [3], partner 1.562 µg/mL | 0.56 | 0.508 | 0.438
S. aureus Newman [3], partner 3.124 µg/mL | 0.12 | 0.0863 | 0.0573

fitness, B. subtilis 168 [4], one replicate
Conditions | first compound 0.39 µg/mL | first compound 0.78 µg/mL | first compound 1.562 µg/mL | first compound 3.125 µg/mL | first compound 6.25 µg/mL
partner 1.562 µg/mL | 0.344 | 0.301 | 0.179 | 0.136 | 0.113
partner 3.124 µg/mL | 0.331 | 0.235 | 0.17 | 0.122 | 0.133
partner 6.248 µg/mL | 0.189 | 0.131 | 0.0925 | 0.0543 | 0.0496

CO/N=C(\C(=O)N[C@@H]1C(=O)N2C(C(=O)O)=C(COC(N)=O)CS[C@H]12)c1ccco1 [Cefuroxime] + C[n+]1ccc(-c2cc[n+](C)cc2)cc1 [Paraquat]
Conditions | Bliss interaction score
B. subtilis 168 [2] | -0.0801
S. aureus DSM 20231 | 0.0764
S. aureus Newman [1] | -0.0456
S. pneumoniae D39V | -0.0322

fitness
Conditions | first compound 0.04875 µg/mL | first compound 0.0975 µg/mL | first compound 0.195 µg/mL
B. subtilis 168 [4], partner 1.25 µg/mL | 0.705 | 0.633 | 0.539
B. subtilis 168 [4], partner 2.5 µg/mL | 0.682 | 0.625 | 0.522
B. subtilis 168 [4], partner 5 µg/mL | 0.632 | 0.584 | 0.366
S. aureus Newman [3], partner 1.25 µg/mL | 0.955 | 0.906 | 0.963
S. aureus Newman [3], partner 2.5 µg/mL | 0.88 | 0.924 | 0.937
S. aureus Newman [3], partner 5 µg/mL | 0.993 | 0.907 | 0.939

fitness, B. subtilis 168 [4], one replicate
Conditions | first compound 1.562 µg/mL | first compound 3.125 µg/mL | first compound 6.25 µg/mL
partner 1.25 µg/mL | 0.224 | 0.144 | 0.0805
partner 2.5 µg/mL | 0.179 | 0.131 | 0.0628
partner 5 µg/mL | 0.147 | 0.0619 | 0.0182

CO/N=C(\C(=O)N[C@@H]1C(=O)N2C(C(=O)O)=C(COC(N)=O)CS[C@H]12)c1ccco1 [Cefuroxime] + Cc1cc(NS(=O)(=O)c2ccc(N)cc2)no1 [Sulfamethoxazol]
Conditions | Bliss interaction score
B. subtilis 168 [2] | -0.0536
S. aureus DSM 20231 | 0.111
S. aureus Newman [1] | -0.0351
S. pneumoniae D39V | -0.0409

fitness
Conditions | first compound 0.04875 µg/mL | first compound 0.0975 µg/mL | first compound 0.195 µg/mL
B. subtilis 168 [4], partner 1 µg/mL | 0.708 | 0.67 | 0.404
B. subtilis 168 [4], partner 2 µg/mL | 0.709 | 0.632 | 0.398
B. subtilis 168 [4], partner 4 µg/mL | 0.687 | 0.636 | 0.5
S. aureus Newman [3], partner 1 µg/mL | ≥ 1 | 0.954 | 0.879
S. aureus Newman [3], partner 2 µg/mL | 0.953 | 0.966 | 0.836
S. aureus Newman [3], partner 4 µg/mL | 0.986 | 0.935 | 0.84

fitness, B. subtilis 168 [4], one replicate
Conditions | first compound 0.195 µg/mL | first compound 0.39 µg/mL | first compound 0.78 µg/mL | first compound 1.562 µg/mL | first compound 3.125 µg/mL | first compound 6.25 µg/mL
partner 0.5 µg/mL | 0.405 | 0.438 | 0.356 | – | – | –
partner 1 µg/mL | – | 0.0396 | 0.107 | 0.267 | 0.221 | 0.202
partner 2 µg/mL | – | 0.29 | 0.262 | 0.251 | 0.198 | 0.132
partner 4 µg/mL | – | – | – | 0.252 | 0.206 | 0.162

CO/N=C(\C(=O)N[C@@H]1C(=O)N2C(C(=O)O)=C(COC(N)=O)CS[C@H]12)c1ccco1 [Cefuroxime] + Cc1ncc([N+](=O)[O-])n1CCO [Metronidazole]
Conditions | Bliss interaction score
B. subtilis 168 [2] | 0.0643
S. aureus DSM 20231 | 0.132
S. aureus Newman [1] | -0.0487
S. pneumoniae D39V | -0.0335

fitness
Conditions | partner 0.625 µg/mL | partner 1.25 µg/mL | partner 2.5 µg/mL
B. subtilis 168 [4], first compound 0.04875 µg/mL | 0.741 | 0.767 | 0.715
B. subtilis 168 [4], first compound 0.195 µg/mL | 0.547 | 0.515 | 0.497
S. aureus Newman [3], first compound 0.04875 µg/mL | ≥ 1 | 0.923 | 0.993
S. aureus Newman [3], first compound 0.0975 µg/mL | 0.897 | 0.939 | 0.918
S. aureus Newman [3], first compound 0.195 µg/mL | 0.943 | 0.978 | 0.921

fitness, B. subtilis 168 [4], one replicate
Conditions | first compound 1.562 µg/mL | first compound 3.125 µg/mL | first compound 6.25 µg/mL
partner 0.625 µg/mL | 0.428 | 0.372 | 0.251
partner 1.25 µg/mL | 0.376 | 0.268 | 0.242
partner 2.5 µg/mL | 0.287 | 0.219 | 0.15

CO/N=C(\C(=O)N[C@@H]1C(=O)N2C(C(=O)O)=C(COC(N)=O)CS[C@H]12)c1ccco1 [Cefuroxime] + Cc1onc(-c2ccccc2)c1C(=O)N[C@@H]1C(=O)N2[C@@H]1SC(C)(C)[C@@H]2C(=O)O [Oxacillin]
Conditions | Bliss interaction score
B. subtilis 168 [2] | -0.0556
S. aureus DSM 20231 | 0.0493
S. aureus Newman [1] | -0.0271
S. pneumoniae D39V | -0.115

fitness, S. aureus Newman [3]
Conditions | first compound 0.04875 µg/mL | first compound 0.0975 µg/mL | first compound 0.195 µg/mL
partner 0.0156 µg/mL | 0.813 | 0.766 | 0.754
partner 0.0312 µg/mL | 0.714 | 0.671 | 0.694
partner 0.0625 µg/mL | 0.447 | 0.436 | 0.323

fitness, B. subtilis 168 [4], one replicate
Conditions | partner 0.002 µg/mL | partner 0.004 µg/mL | partner 0.0078 µg/mL | partner 0.008 µg/mL | partner 0.0155 µg/mL | partner 0.031 µg/mL | partner 0.075 µg/mL | partner 0.15 µg/mL | partner 0.3 µg/mL
first compound 0.04875 µg/mL | 0.882 | 0.858 | 0.556 | 0.979 | 0.507 | 0.507 | – | – | –
first compound 0.0975 µg/mL | 0.734 | 0.866 | 0.506 | 0.881 | 0.454 | 0.486 | – | – | –
first compound 0.195 µg/mL | 0.739 | 0.705 | 0.375 | 0.717 | 0.344 | 0.367 | 0.0418 | 0.0405 | 0.0333
first compound 0.39 µg/mL | – | – | – | – | – | – | 0.0582 | 0.0174 | 0.0294
first compound 0.78 µg/mL | – | – | – | – | – | – | 0.0387 | 0.0089 | 0.0244
first compound 1.562 µg/mL | 0.239 | 0.138 | – | 0.111 | – | – | – | – | –
first compound 3.125 µg/mL | 0.137 | 0.129 | – | 0.0905 | – | – | – | – | –
first compound 6.25 µg/mL | 0.11 | 0.1 | – | 0.0957 | – | – | – | – | –

CO/N=C(\C(=O)N[C@@H]1C(=O)N2C(C(=O)O)=C(COC(N)=O)CS[C@H]12)c1ccco1 [Cefuroxime] + O=C(O[C@@H]1Cc2c(O)cc(O)cc2O[C@@H]1c1cc(O)c(O)c(O)c1)c1cc(O)c(O)c(O)c1 [EGCG]
Conditions | Bliss interaction score
B. subtilis 168 [2] | 0.158
S. aureus DSM 20231 | 0.0989
S. aureus Newman [1] | 0.0827
S. pneumoniae D39V | 0.0461

fitness
Conditions | first compound 0.04875 µg/mL | first compound 0.0975 µg/mL | first compound 0.195 µg/mL
B. subtilis 168 [4], partner 6.25 µg/mL | 0.74 | 0.667 | 0.438
B. subtilis 168 [4], partner 12.5 µg/mL | 0.376 | 0.493 | 0.506
B. subtilis 168 [4], partner 25 µg/mL | 0.249 | 0.219 | 0.17
S. aureus Newman [3], partner 12.5 µg/mL | 0.885 | 0.801 | 0.879
S. aureus Newman [3], partner 25 µg/mL | 0.767 | 0.773 | 0.756
S. aureus Newman [3], partner 50 µg/mL | 0.688 | 0.617 | 0.561

fitness, B. subtilis 168 [4], one replicate
Conditions | first compound 0.39 µg/mL | first compound 0.78 µg/mL | first compound 1.562 µg/mL | first compound 3.125 µg/mL | first compound 6.25 µg/mL
partner 6.25 µg/mL | 0.425 | 0.411 | 0.356 | 0.3 | 0.304
partner 12.5 µg/mL | 0.461 | 0.436 | 0.195 | 0.236 | 0.279
partner 25 µg/mL | 0.274 | 0.318 | 0.103 | 0.064 | 0.0477
